Source: PubChem BioAssay AID2060342 (Molecular Pharmacology Branch, DTP, NCI, 2025)
pIC50: −log10 of the molar value. Several values for one entry are separate records, joined by “and”; a condition that tells them apart may be missing. Identical values can stand only once.

Tested on: 171881-019-R-J1-PDC multicell spheroid viability
Assay: Anticancer human tumor 171881-019-R-J1-PDC patient-derived invasive breast carcinoma cell line growth inhibition [IpAb]
Details: for viability, T/C: stronger effect = lower value
Description: Combinatorial screen of targeted agents with ipatasertib and abemaciclib in multi-cell type tumor spheroids
A high-throughput screen of multi-cell type tumor spheroids was designed to identify active combinations of targeted small molecules and ipatasertib or abemaciclib. Complex spheroids include a stromal component modeled by human endothelial cells (HUVEC) and fibroblasts modeled by human mesenchymal stem cells (MSCs). The concentration ranges selected for each drug and investigational agent were based upon clinically achievable concentrations if the clinical Cmax of the agent was known.
Compounds. The drugs and investigational agents: ipatasertib (NSC767898), abemaciclib(NSC768073), selumetinib (NSC741078), trametinib (758246), adavosertib (NSC754352), everolimus (NSC733504), sapanisertib (NSC764658), vemurafenib (NSC761431), venetoclax (NSC766270), copanlisib (NSC809693), apelisib (NSC765974), palbociblib (NSC758247), vemurafenib (NSC761431), dabrafenib (NSC764134), ravoxertinib (NSC781343), BMS-387032 (NSC767048), sotorasib (NSC818433), talazoparib (NSC767125) and afursertib (NSC778305), were obtained from the National Cancer Institute (NCI) Developmental Therapeutics Program Chemical Repository. The FDA-approved anticancer drug set is available from the NCI Developmental Therapeutics Program. […] The stock solutions were prepared in dimethyl sulfoxide (DMSO, Sigma-Aldrich, St. Louis, MO, cat. D2650) at 800-fold the tested concentration and stored at -70 degrees C prior to their use. All drugs and investigational agents were tested over a range starting from a high concentration at or near the clinical Cmax and decreasing in half-log increments. If the clinical Cmax for an agent had not been determined, the highest concentration tested was 10 microM.
NCI60 Cell Culture. NCI60 cell lines were obtained from the NCI Developmental Therapeutics Program Tumor Repository. For each lot of cells, the Repository performed Applied Biosystems AmpFLSTR Identifiler testing with PCR amplification to confirm consistency with the published Identifier STR profile for each cell line. Cells were kept in continuous culture for no more than 20 passages. The optimal seeding densities for each of the cell lines at each time point assessed were determined prior to performing the concentration response studies. Briefly, the NCI60 human tumor lines were grown as monolayers in RPMI 1640 medium supplemented with 10% FBS and 2 mmol/L L-glutamine.
An additional 9 lines were from the NCI60 cell line panel including MDA-MB-231 breast carcinoma, MDA-MB-468 breast carcinoma, MCF7 breast carcinoma, Hs578T breast carcinoma, MALME-3M melanoma, SK-MEL-2 melanoma, SK-OV-3 ovarian carcinoma, DU-145 prostate carcinoma, PC-3 prostate carcinoma, all cell lines along with major genetic alterations are listed on Table 2. Pooled donor human umbilical vein endothelial cells (HUVEC, Lonza, cat. CC-2519) and human mesenchymal stem cells (hMSC, Lonza, cat. PT-2501) were purchased from Lonza (Walkersville, MD).
PDMR cell lines were grown in complete medium (DC medium): Dulbecco's modified Eagle's medium (DMEM)/F12 supplemented with 5% fetal bovine serum (FBS), 2 mM L-glutamine, 100 U/mL penicillin and 100 µg/ml streptomycin, 0.4 µg/ml hydrocortisone, 10 ng/ml epidermal growth factor (EGF) recombinant human protein, 24 µg/mL adenine, and 0.1 mg/mL primocin. During culture from frozen stock vials, PDMR cells were cultured in the same medium containing 10 µM Y-27632 (see Table 3). The PDCs were cultured in complete DMEM/F12 media without 10 microM Y-27632 dihydrochloride for at least two passages prior to the screen. The pooled donor HUVEC and hMSC were cultured in endothelial cell growth medium 2 (PromoCell, Heidelberg, Germany, cat. C-22011) and mesenchymal stem cell growth medium 2 (PromoCell, cat. C-28009), respectively. For all experiments, HUVEC and hMSC were used at passages </=5.
[…]

[1] = curve of first compound, second compound 0.1 µM
[2] = curve of first compound, second compound 0.316 µM
[3] = curve of first compound, second compound 1 µM
[4] = second compound 0.1 µM, first compound 0.0316 µM
[5] = second compound 0.1 µM, first compound 0.1 µM
[6] = second compound 0.1 µM, first compound 0.316 µM
[7] = second compound 0.1 µM, first compound 1 µM
[8] = second compound 0.1 µM, first compound 3.16 µM
[9] = second compound 0.1 µM, first compound 10 µM
[10] = second compound 0.316 µM, first compound 0.0316 µM
[11] = second compound 0.316 µM, first compound 0.1 µM
[12] = second compound 0.316 µM, first compound 0.316 µM
[13] = second compound 0.316 µM, first compound 1 µM
[14] = second compound 0.316 µM, first compound 3.16 µM
[15] = second compound 0.316 µM, first compound 10 µM
[16] = second compound 1 µM, first compound 0.0316 µM
[17] = second compound 1 µM, first compound 0.1 µM
[18] = second compound 1 µM, first compound 0.316 µM
[19] = second compound 1 µM, first compound 1 µM
[20] = second compound 1 µM, first compound 3.16 µM
[21] = second compound 1 µM, first compound 10 µM
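Further: spheroids exposed to the agents for seven days before readout.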

## Cc1nc(NC(=O)N2CCCC2C(N)=O)sc1-c1ccnc(C(C)(C)C(F)(F)F)c1 (stereo unspecified)
Compound 0.0316 µM
  viability, T/C: 117% and 108%
Compound 0.1 µM
  viability, T/C: 128% and 98.1%
Compound 0.316 µM
  viability, T/C: 84.2% and 67.8%
Compound 1 µM
  viability, T/C: 36.8% and 38.8%
Compound 3.16 µM
  viability, T/C: 16.5% and 12.6%
Compound 10 µM
  viability, T/C: 2.78% and 1.93%
Curve of compound
  pIC50: 6.13 and 6.19

## CCCS(=O)(=O)Nc1ccc(F)c(C(=O)c2c[nH]c3ncc(-c4ccc(Cl)cc4)cc23)c1F
Compound 0.0316 µM
  viability, T/C: 111% and 90.2%
Compound 0.1 µM
  viability, T/C: 95.2% and 83%
Compound 0.316 µM
  viability, T/C: 86.9% and 93.1%
Compound 1 µM
  viability, T/C: 90.1% and 80.4%
Compound 3.16 µM
  viability, T/C: 78.3% and 72.6%
Compound 10 µM
  viability, T/C: 76.2% and 87.7%
Curve of compound
  pIC50: < 5.00

## C=CCn1c(=O)c2cnc(Nc3ccc(N4CCN(C)CC4)cc3)nc2n1-c1cccc(C(C)(C)O)n1 + CC(C)NCC(C(=O)N1CCN(c2ncnc3c2C(C)CC3O)CC1)c1ccc(Cl)cc1
[1]
  pIC50: 6.14
[2]
  pIC50: 6.45
[3]
  pIC50: > 7.50
Curve of first compound, second compound 3.16 µM
  pIC50: > 7.50
Curve of first compound, second compound 10 µM
  pIC50: > 7.50
[4]
  viability, T/C: 116%
[5]
  viability, T/C: 118%
[6]
  viability, T/C: 114%
[7]
  viability, T/C: 25.6%
[8]
  viability, T/C: 22.1%
[9]
  viability, T/C: 20.3%
[10]
  viability, T/C: 87.3%
[11]
  viability, T/C: 80.3%
[12]
  viability, T/C: 54%
[13]
  viability, T/C: 17.4%
[14]
  viability, T/C: 15.6%
[15]
  viability, T/C: 16.4%
[16]
  viability, T/C: 26.4%
[17]
  viability, T/C: 23.8%
[18]
  viability, T/C: 16.5%
[19]
  viability, T/C: 9.22%
[20]
  viability, T/C: 10.4%
[21]
  viability, T/C: 10.4%
Second compound 3.16 µM, first compound 0.0316 µM
  viability, T/C: 9.36%
Second compound 3.16 µM, first compound 0.1 µM
  viability, T/C: 8.13%
Second compound 3.16 µM, first compound 0.316 µM
  viability, T/C: 6.23%
Second compound 3.16 µM, first compound 1 µM
  viability, T/C: 5.35%
Second compound 3.16 µM, first compound 3.16 µM
  viability, T/C: 7.31%
Second compound 3.16 µM, first compound 10 µM
  viability, T/C: 8.03%
Second compound 10 µM, first compound 0.0316 µM
  viability, T/C: 5.29%
Second compound 10 µM, first compound 0.1 µM
  viability, T/C: 4.04%
Second compound 10 µM, first compound 0.316 µM
  viability, T/C: 3.45%
Second compound 10 µM, first compound 1 µM
  viability, T/C: 4.09%
Second compound 10 µM, first compound 3.16 µM
  viability, T/C: 4.97%
Second compound 10 µM, first compound 10 µM
  viability, T/C: 4.41%

## Cc1nc(NC(=O)N2CCCC2C(N)=O)sc1-c1ccnc(C(C)(C)C(F)(F)F)c1 (stereo unspecified) + CCN1CCN(Cc2ccc(Nc3ncc(F)c(-c4cc(F)c5nc(C)n(C(C)C)c5c4)n3)nc2)CC1
Curve of first compound, second compound 0.01 µM
  pIC50: 6.11
Curve of first compound, second compound 0.0316 µM
  pIC50: 6.13
[1]
  pIC50: 6.08
[2]
  pIC50: 6.01
[3]
  pIC50: 5.81
Second compound 0.01 µM, first compound 0.0316 µM
  viability, T/C: 109%
Second compound 0.01 µM, first compound 0.1 µM
  viability, T/C: 112%
Second compound 0.01 µM, first compound 0.316 µM
  viability, T/C: 72%
Second compound 0.01 µM, first compound 1 µM
  viability, T/C: 44.7%
Second compound 0.01 µM, first compound 3.16 µM
  viability, T/C: 15.7%
Second compound 0.01 µM, first compound 10 µM
  viability, T/C: 1.42%
Second compound 0.0316 µM, first compound 0.0316 µM
  viability, T/C: 118%
Second compound 0.0316 µM, first compound 0.1 µM
  viability, T/C: 108%
Second compound 0.0316 µM, first compound 0.316 µM
  viability, T/C: 75.7%
Second compound 0.0316 µM, first compound 1 µM
  viability, T/C: 40.9%
Second compound 0.0316 µM, first compound 3.16 µM
  viability, T/C: 13.5%
Second compound 0.0316 µM, first compound 10 µM
  viability, T/C: 2.7%
[4]
  viability, T/C: 117%
[5]
  viability, T/C: 112%
[6]
  viability, T/C: 75.9%
[7]
  viability, T/C: 44.9%
[8]
  viability, T/C: 18.3%
[9]
  viability, T/C: 2.71%
[10]
  viability, T/C: 130%
[11]
  viability, T/C: 112%
[12]
  viability, T/C: 85.7%
[13]
  viability, T/C: 47.2%
[14]
  viability, T/C: 23%
[15]
  viability, T/C: 4.63%
[16]
  viability, T/C: 137%
[17]
  viability, T/C: 117%
[18]
  viability, T/C: 89.8%
[19]
  viability, T/C: 64.1%
[20]
  viability, T/C: 29.7%
[21]
  viability, T/C: 8.19%

## Cn1nccc1Nc1nccc(-c2ccn(C(CO)c3ccc(Cl)c(F)c3)c(=O)c2)n1 (stereo unspecified)
Compound 0.0316 µM
  viability, T/C: 107% and 117%
Compound 0.1 µM
  viability, T/C: 108% and 112%
Compound 0.316 µM
  viability, T/C: 77.1% and 79%
Compound 1 µM
  viability, T/C: 39.2% and 41.8%
Compound 3.16 µM
  viability, T/C: 22.2% and 22.1%
Compound 10 µM
  viability, T/C: 19.1% and 18.8%
Curve of compound
  pIC50: 6.15 and 6.12
